Assay results reported in ChEMBL document CHEMBL1201862, “PubChem BioAssay data set” (2004).
Values joined by “and” are separate entries in the source; they are usually repeats but may differ in a detail not shown here. Equal values may be shown once. Active and inactive are the calls of the source. Rule as the data show it, for most assays here: actives have a measured EC50 and inactives only a lower limit.

How the values were obtained:
[1] = target: Cytochrome P450 2C9 (Homo sapiens, UniProt P11712)
[2] = Luminescence Cell-Based Dose Confirmation HTS to Identify Activators of 5'UTR Stem-Loop Driven Alpha-Synuclein mRNA Translation in H4 Neuroglioblastoma Cells. [Related pubchem assays: 1829 (Project Summary), 1814 (Primary HTS)]; format: functional
[3] = Luminescence Cell-Based Dose Response HTS to Identify Activators of Luciferase Translation or Activity in H4 […] Cells. [Related pubchem assays: 1829 (Project Summary), 1814 (Primary HTS)]; format: functional
[4] = system: H4; test: Luminescence Cell-Based Dose Response HTS to Identify Activators of 5'UTR Stem-Loop Driven Prion Protein mRNA Translation in H4 Neuroglioblastoma Cells. [Related pubchem assays: 1829 (Project Summary), 1814 (Primary HTS)]; format: functional; settings: Homo sapiens
[5] = target: Cytochrome P450 2D6 (Homo sapiens, UniProt P10635);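 also: CYP2D6 member of a cytochrome P450 panel assay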
[6] = target: Cytochrome P450 3A4 (Homo sapiens, UniProt P08684);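 also: CYP3A4 tested as one member of a cytochrome P450 panel screen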
[7] = target: T1, Heat shock factor protein 1 (Mus musculus, UniProt P38532); test: HSF1 potentiators in luciferase reporter cells, confirmation, cell-based, NIH3T3, luminescence, dose retest (AID 435004); format: functional;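 also: stress induced by proteasome inhibitor MG132 added 30 min after compound; luciferase reporter driven by HSF1 response element in NIH3T3 cells; actives raise luminescence as potentiators of the MG132 stress response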
T1 sequence (P38532 whole entry): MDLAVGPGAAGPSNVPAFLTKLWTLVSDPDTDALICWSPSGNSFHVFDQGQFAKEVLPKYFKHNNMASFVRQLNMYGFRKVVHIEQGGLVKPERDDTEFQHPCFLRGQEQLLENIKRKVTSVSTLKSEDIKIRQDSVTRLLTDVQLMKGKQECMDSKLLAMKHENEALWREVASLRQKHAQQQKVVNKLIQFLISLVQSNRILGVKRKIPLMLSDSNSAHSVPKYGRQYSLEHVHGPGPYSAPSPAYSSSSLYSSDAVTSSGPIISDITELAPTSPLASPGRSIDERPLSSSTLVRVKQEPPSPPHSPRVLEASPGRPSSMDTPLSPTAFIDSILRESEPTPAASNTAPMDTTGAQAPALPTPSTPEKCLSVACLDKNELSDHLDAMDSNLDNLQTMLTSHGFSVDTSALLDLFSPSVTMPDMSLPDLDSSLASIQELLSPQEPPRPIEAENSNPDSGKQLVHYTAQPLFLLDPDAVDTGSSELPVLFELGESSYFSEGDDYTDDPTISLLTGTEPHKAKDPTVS

[8] = target: T2, Rac GTPase-activating protein 1 (Homo sapiens, UniProt Q9H0H5); test: MgcRacGAP GTPase-activating activity inhibitors, confirmation, biochemical, ADP Hunter fluorescence, primary and confirmatory (AID 624330); format: functional
T2 sequence (Q9H0H5 whole entry): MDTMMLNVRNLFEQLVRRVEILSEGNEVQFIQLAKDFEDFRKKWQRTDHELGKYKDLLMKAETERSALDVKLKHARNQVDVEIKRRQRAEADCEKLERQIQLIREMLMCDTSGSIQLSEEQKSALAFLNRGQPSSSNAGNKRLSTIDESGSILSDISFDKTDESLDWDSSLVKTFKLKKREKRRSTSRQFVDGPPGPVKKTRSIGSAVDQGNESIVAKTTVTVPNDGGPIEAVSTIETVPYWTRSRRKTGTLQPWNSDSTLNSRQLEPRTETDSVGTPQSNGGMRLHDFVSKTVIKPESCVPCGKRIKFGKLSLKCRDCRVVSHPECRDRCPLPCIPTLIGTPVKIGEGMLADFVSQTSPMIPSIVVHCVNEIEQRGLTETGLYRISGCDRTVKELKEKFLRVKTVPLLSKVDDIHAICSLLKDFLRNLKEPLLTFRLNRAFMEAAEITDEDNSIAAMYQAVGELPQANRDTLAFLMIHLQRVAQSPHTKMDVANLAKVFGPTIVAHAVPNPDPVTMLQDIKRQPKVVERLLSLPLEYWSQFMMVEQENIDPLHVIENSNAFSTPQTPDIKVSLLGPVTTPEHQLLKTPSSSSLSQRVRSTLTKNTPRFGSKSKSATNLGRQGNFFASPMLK

[9] = target: T3, Cytochrome P450 1A2 (Homo sapiens, UniProt P05177);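 also: PubChem cytochrome P450 panel assay, CYP1A2 panel member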
T3 sequence (P05177 whole entry): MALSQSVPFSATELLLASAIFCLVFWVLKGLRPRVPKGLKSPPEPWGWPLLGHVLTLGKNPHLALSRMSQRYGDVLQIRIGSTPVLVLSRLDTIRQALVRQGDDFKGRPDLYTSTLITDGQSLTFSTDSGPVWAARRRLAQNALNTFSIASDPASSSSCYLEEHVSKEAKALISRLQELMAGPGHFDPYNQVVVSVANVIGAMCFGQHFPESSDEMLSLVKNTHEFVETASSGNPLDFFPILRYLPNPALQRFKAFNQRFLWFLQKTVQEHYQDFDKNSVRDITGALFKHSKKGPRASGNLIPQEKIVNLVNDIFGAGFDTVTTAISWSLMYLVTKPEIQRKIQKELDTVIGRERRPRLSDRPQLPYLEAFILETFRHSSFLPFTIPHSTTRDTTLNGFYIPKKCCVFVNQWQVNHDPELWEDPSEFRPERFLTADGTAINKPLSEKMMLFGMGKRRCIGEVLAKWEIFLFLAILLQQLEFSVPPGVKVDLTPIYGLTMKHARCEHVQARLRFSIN

[10] = HEp-2 cell cytotoxicity, dose response, cytotoxicity control for RSV inhibitor project, HTS (AID 2410); format: functional; settings: human respiratory syncytial virus
[11] = inhibitors of firefly luciferase expression or activity, dose response, H4 neuroglioma cells, luminescence (AID 1990); format: functional, cell-based
[12] = Luminescence Cell-Based Dose Response HTS to Identify Inhibitors of 5'UTR Stem-Loop Driven Prion Protein mRNA Translation in H4 Neuroglioblastoma Cells. [Related pubchem assays: 1827 (Project Summary), 1813 (Primary HTS)]; format: functional
[13] = inhibitors of SNCA 5'UTR-driven reporter translation, confirmation, H4 neuroglioma cells, luminescence (AID 1988); format: functional, cell-based
[14] = inhibitors of intracellular T. cruzi replication, confirmation, NIH3T3 host cells, beta-gal luminescence (AID 2044); format: functional, cell-based;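 also: intracellular parasites grown in NIH/3T3 mouse fibroblasts as host cells; luminescent beta-galactosidase reporter signal from transgenic T. cruzi replicating inside host cells; inhibitors lower the luminescence signal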
[15] = cytotoxicity toward NIH3T3 fibroblasts, dose response, counter-screen, cell-based, ATP luminescence, mouse fibroblasts (AID 2010); format: functional; settings: NIH3T3;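 also: cells exposed to compound for about 90 hours before reading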

Chain of Cytochrome P450 2D6 (P10635 whole entry): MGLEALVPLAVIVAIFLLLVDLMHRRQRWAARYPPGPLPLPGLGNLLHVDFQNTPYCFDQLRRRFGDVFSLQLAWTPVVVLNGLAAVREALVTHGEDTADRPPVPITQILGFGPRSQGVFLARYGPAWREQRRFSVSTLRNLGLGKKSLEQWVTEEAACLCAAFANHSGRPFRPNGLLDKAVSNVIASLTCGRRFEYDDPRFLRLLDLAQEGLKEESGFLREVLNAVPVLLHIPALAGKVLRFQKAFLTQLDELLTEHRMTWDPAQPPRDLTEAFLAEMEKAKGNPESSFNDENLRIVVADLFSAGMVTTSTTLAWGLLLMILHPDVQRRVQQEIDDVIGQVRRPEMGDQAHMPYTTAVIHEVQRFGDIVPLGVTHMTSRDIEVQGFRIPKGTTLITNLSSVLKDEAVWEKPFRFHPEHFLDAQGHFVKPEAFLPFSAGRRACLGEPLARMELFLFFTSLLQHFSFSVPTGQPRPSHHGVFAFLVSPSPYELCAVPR
Chain of Cytochrome P450 2C9 (P11712 whole entry): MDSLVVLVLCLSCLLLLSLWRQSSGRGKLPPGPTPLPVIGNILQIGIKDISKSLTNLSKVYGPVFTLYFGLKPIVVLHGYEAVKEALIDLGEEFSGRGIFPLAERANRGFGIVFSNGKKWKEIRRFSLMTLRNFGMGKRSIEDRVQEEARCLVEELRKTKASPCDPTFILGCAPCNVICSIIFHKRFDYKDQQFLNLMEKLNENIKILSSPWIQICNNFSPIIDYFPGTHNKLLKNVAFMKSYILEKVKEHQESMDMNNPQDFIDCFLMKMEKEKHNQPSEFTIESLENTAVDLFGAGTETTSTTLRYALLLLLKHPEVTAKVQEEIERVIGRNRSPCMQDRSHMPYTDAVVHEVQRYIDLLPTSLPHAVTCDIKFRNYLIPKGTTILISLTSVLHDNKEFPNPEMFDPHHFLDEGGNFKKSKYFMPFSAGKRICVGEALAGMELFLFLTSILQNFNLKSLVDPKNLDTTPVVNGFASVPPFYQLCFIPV
Chain of Cytochrome P450 3A4 (P08684 whole entry): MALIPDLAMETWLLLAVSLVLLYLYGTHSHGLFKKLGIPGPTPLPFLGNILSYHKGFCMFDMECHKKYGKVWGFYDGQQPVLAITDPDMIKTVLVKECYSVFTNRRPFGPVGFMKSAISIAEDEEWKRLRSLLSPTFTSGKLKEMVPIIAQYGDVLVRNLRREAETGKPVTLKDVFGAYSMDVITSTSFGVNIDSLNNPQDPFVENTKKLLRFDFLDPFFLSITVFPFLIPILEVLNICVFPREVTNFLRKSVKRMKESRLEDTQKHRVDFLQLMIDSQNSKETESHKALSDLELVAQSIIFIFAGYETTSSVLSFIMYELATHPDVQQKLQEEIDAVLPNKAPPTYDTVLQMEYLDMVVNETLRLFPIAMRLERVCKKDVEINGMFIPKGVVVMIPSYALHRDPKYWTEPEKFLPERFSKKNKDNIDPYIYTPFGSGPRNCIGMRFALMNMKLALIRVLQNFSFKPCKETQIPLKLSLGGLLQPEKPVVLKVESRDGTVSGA

C=CCN1/C(=N/C(=O)CC)SC2CS(=O)(=O)CC21 (stereo unspecified)
AC50 [1]: 11.2 µM (inconclusive)

Cc1ccc(N/C([S-])=C(/C(=O)c2ccc(C)c([N+](=O)[O-])c2)[n+]2ccccc2)cc1C
EC50 [2]: 2.37 µM (active) | EC50 [3]: 16.1 µM (active) | EC50 [4]: 46.6 µM (active) | AC50 [5]: 25.1 µM (inconclusive) | AC50 [6]: 11.2 µM (inconclusive)

CCCNC(=O)Nc1ccc(C)cc1C
EC50 [7]: > 260 µM (inactive)

O=C(Cn1cnc2c(cnn2-c2ccccc2)c1=O)NCc1ccccc1
EC50 [2]: 8.08 µM (active) | EC50 [3]: 9.72 µM (active) | EC50 [4]: 89.8 µM (active)

O=C(C1CCCN(Cc2cccnc2)C1)N1CCCCC1 (stereo unspecified)
IC50 [8]: 74 µM (active)

Cc1ccccc1Nc1nnc(C)c(O)n1
EC50 [7]: > 260 µM (inactive)

COc1ccc(-c2noc(CCCC(=O)NCCc3ccccc3)n2)cc1OC
AC50 [5]: 22.4 µM (inconclusive) | AC50 [9]: 15.8 µM (inconclusive) | AC50 [1]: 4.47 µM (inconclusive)

CC(C)C[C@H]1C(=O)N2CCC[C@@H]2[C@]2(O)O[C@](NC(=O)[C@H]3C=C4c5cccc6[nH]c(Br)c(c56)C[C@H]4N(C)C3)(C(C)C)C(=O)N12
AC50 [1]: 12.6 µM (inconclusive) and 15.8 µM (inconclusive)

N#Cc1cc(Cl)c(NCC2CCCO2)cc1C#N (stereo unspecified)
CC50 [10]: 20.9 µM (active) | EC50 [7]: > 260 µM (inactive)

COc1ccc(C2C=C(C)Nc3ncnn32)cc1 (stereo unspecified)
EC50 [2]: 19.2 µM (active) | EC50 [3]: 50.5 µM (active) | EC50 [4]: > 120 µM (not active)

c1ccc(-c2nnsc2Sc2ccccn2)cc1
EC50 [2]: 18.3 µM (active) | EC50 [3]: 11.7 µM (active) | EC50 [4]: 16.3 µM (active)

CC(=O)/C(=N/Nc1ccc(Br)cc1)N1CCCc2ccccc21
CC50 [10]: 12.8 µM (active) | EC50 [11]: > 120 µM (not active) | EC50 [12]: > 120 µM (not active) | EC50 [13]: 14.5 µM (active) | EC50 [7]: 113 µM (active)

CCN(CC(=O)Nc1cccc(OC)c1)CC(=O)Nc1ccc(Br)c(C)c1
EC50 [7]: 61.1 µM (active)

N#C/C(=C/c1ccc(N2CCCCC2)o1)c1cccc(F)c1
EC50 [2]: 0.141 µM (active) | EC50 [3]: 0.355 µM (active) | EC50 [4]: 16.5 µM (active) | EC50 [14]: 3.55 µM (active) | EC50 [15]: > 60 µM (not active)

O=C(CCCc1ccccc1)Nc1ccc2c(c1)OCCO2
EC50 [7]: 32.2 µM (active)

Cc1nc([N+](=O)[O-])c(N2CCN(C)CC2)n1Cc1ccccc1
AC50 [5]: 35.5 µM (inconclusive) | AC50 [1]: 39.8 µM (inconclusive)

O=C(Nc1ccc(S(=O)(=O)N2CCCCC2)cc1)C1CCN(C(=O)c2ccco2)CC1
EC50 [7]: > 260 µM (inactive)

COc1cc(NC(=S)NC(=O)c2c(OC)cccc2OC)ccc1NC(=O)c1cccs1
AC50 [1]: 1.41 µM (inconclusive)

CCN(CC)S(=O)(=O)c1cccc(C(=O)OCC(=O)N2CC(=O)Nc3ccccc32)c1
EC50 [7]: > 260 µM (inactive)
